In paper PMC1976805, “Preclinical pharmacokinetics of benznidazole” (British Journal of Cancer, 1984):
Read-outs that look alike come from different tables or passages of the source.

How the values were obtained:
plasma proteins = assay: Plasma protein binding, summary over species; type: in vivo; conditions: mouse, sheep, dog, range over species studied
Excerpt: (§1) Br. J. Cancer (1984), 50, 291-303 Preclinical pharmacokinetics of benznidazole P. Workman', R.A.S. White2, M.I. Walton', L.N. Owen2* & P.R. Twentyman' 1MRC Clinical Oncology and Radiotherapeutics Unit, MRC Centre, Hills Road, Cambridge CB2 2QH, and 2Department of Clinical Veterinary Medicine, University of Cambridge, Madingley Road, Cambridge CB3 OES, UK. […] We have investigated the detailed pharmacokinetics of benznidazole in mice, dogs and sheep to provide a data base for the estimation of doses required for chemosensitization in man. Pharmacokinetic behaviour was linear except at high doses in mice. Absorption was fairly rapid and bioavailability was complete following both i.p. administration in mice and oral administration in dogs. […] Although benznidazole is used quite widely in South America to treat patients with the trypanosomal infection Chagas' disease or with mucotaneous Leishmaniasis (Barclay et al., 1978; Cerisola et al., 1978; Coura et al., 1978; Fava et al., 1978), apart from our preliminary studies (White et al., 1982) the only published data on its pharmaco- kinetics are for human plasma concentrations measured by polarography (Raaflub & Ziegler, 1979; Raaflub, 1980). Here we describe the pharmacokinetics of benznidazole in the mouse, sheep and dog, as determined by high-performance liquid chromatography (HPLC). […]

[1] = Tissue penetration in dogs bearing spontaneous neoplasms; type: in vivo, dog; conditions: for Kp: dog
Excerpt: Br. J. Cancer (1984), 50, 291-303 Preclinical pharmacokinetics of benznidazole P. Workman', R.A.S. White2, M.I. Walton', L.N. Owen2* & P.R. Twentyman' 1MRC Clinical Oncology and Radiotherapeutics Unit, MRC Centre, Hills Road, Cambridge CB2 2QH, and 2Department of Clinical Veterinary Medicine, University of Cambridge, Madingley Road, Cambridge CB3 OES, UK. […] We have investigated the detailed pharmacokinetics of benznidazole in mice, dogs and sheep to provide a data base for the estimation of doses required for chemosensitization in man. Pharmacokinetic behaviour was linear except at high doses in mice. Absorption was fairly rapid and bioavailability was complete following both i.p. administration in mice and oral administration in dogs. Elimination t4 values were longer than for MISO, being 90 min in mice, 4-5 h in sheep and 9-11 h in dogs. At doses giving linear kinetics, peak whole plasma concentrations per administered mgkg-1 were 0.75 jigml-1 for the i.p. route in mice and 1.8jugmlP' for the oral route in dogs. Though between 39 and 59% of plasma benznidazole was bound to protein, tissue penetration was generally good. Tissue/whole plasma ratios ranged from 59-99% for transplantable mouse tumours and from 14-70% for spontaneous dog neoplasms. Nervous tissue penetration was similar to that in tumours: brain/whole plasma ratios averaged between 61 and 76% in mice and 42% in dogs, while peripheral nerve/whole plasma ratios in dogs averaged 74%. Mean liver/whole plasma ratios were 42% and 71% in BALB/c and C3H/He mouse strains respectively. Only -5% of the administered dose was excreted unchanged in the urine, indicating the likelihood of extensive metabolism. […] Enhancement of CCNU response is likely to require circulating benznidazole concentrations of 10-30 pgml-1 and we predict that these will be obtained with oral doses of 6-20 mgkg- 1 in man. […] This enhancement, or chemosensitization, is usually greater than that seen in dose-limiting normal tissues, resulting in an improved therapeutic index. Because of the relatively high doses of MISO usually required for chemosensitization in mice (see above refs), and also because of its neurotoxicity in man (Dische et al., 1977), we have been interested in finding an improved chemosensitizer. […] The lipophilic ana- logue benznidazole (N-benzyl-(2-nitroimidazolyl) acetamide, Ro 07-1051; Radanil; Roche), the structure of which is shown in Figure 1, was selected for detailed study because of its ability to *Present address: Animal Health Trust, Small Animals Centre, Lanwades Park, Kennett, Newmarket, Suffolk CB8 7PN, UK. Correspondence: P. Workman. […] These findings have been confirmed independently by Siemann et al. (1983). Although benznidazole is used quite widely in South America to treat patients with the trypanosomal infection Chagas' disease or with mucotaneous Leishmaniasis (Barclay et al., 1978; Cerisola et al., 1978; Coura et al., 1978; Fava et al., 1978), apart from our preliminary studies (White et al., 1982) the only published data on its pharmaco- kinetics are for human plasma concentrations measured by polarography (Raaflub & Ziegler, 1979; Raaflub, 1980). Here we describe the pharmacokinetics of benznidazole in the mouse, sheep and dog, as determined by high-performance liquid chromatography (HPLC). […]

[2] = 24 h urinary recovery of unchanged drug in mice; type: in vivo, mouse; conditions: for dose excreted: male, BALB/c, mouse, urine, ip, 650 mg kg-1, BALB/c mice, 650 mg kg-1 i.p.
Excerpt: as §1, with “dogs. Elimination t4 values were longer than for MISO, being 90 min in mice, 4-5 h in sheep and 9-11 h in dogs. At doses giving linear kinetics, peak whole plasma concentrations per administered mgkg-1 were 0.75 jigml-1 for the i.p. route in mice and 1.8jugmlP' for the oral route in dogs. Though between 39 and 59% of plasma benznidazole was bound to protein, tissue penetration was generally good. Tissue/whole plasma ratios ranged from 59-99% for transplantable mouse tumours and from 14-70% for spontaneous dog neoplasms. Nervous tissue penetration was similar to that in tumours: brain/whole plasma ratios averaged between 61 and 76% in mice and 42% in dogs, while peripheral nerve/whole plasma ratios in dogs averaged 74%.” for “dogs.”

[3] = Whole plasma pharmacokinetics in dogs (HPLC); type: in vivo, dog; conditions: dog
Excerpt: Br. J. Cancer (1984), 50, 291-303 Preclinical pharmacokinetics of benznidazole P. Workman', R.A.S. White2, M.I. Walton', L.N. Owen2* & P.R. Twentyman' 1MRC Clinical Oncology and Radiotherapeutics Unit, MRC Centre, Hills Road, Cambridge CB2 2QH, and 2Department of Clinical Veterinary Medicine, University of Cambridge, Madingley Road, Cambridge CB3 OES, UK. […] We have investigated the detailed pharmacokinetics of benznidazole in mice, dogs and sheep to provide a data base for the estimation of doses required for chemosensitization in man. Pharmacokinetic behaviour was linear except at high doses in mice. Absorption was fairly rapid and bioavailability was complete following both i.p. administration in mice and oral administration in dogs. Elimination t4 values were longer than for MISO, being 90 min in mice, 4-5 h in sheep and 9-11 h in dogs. At doses giving linear kinetics, peak whole plasma concentrations per administered mgkg-1 were 0.75 jigml-1 for the i.p. route in mice and 1.8jugmlP' for the oral route in dogs. Though between 39 and 59% of plasma benznidazole was bound to protein, tissue penetration was generally good. Tissue/whole plasma ratios ranged from 59-99% for transplantable mouse tumours and from 14-70% for spontaneous dog neoplasms. Nervous tissue penetration was similar to that in tumours: brain/whole plasma ratios averaged between 61 and 76% in mice and 42% in dogs, while peripheral nerve/whole plasma ratios in dogs averaged 74%. Mean liver/whole plasma ratios were 42% and 71% in BALB/c and C3H/He mouse strains respectively. Only -5% of the administered dose was excreted unchanged in the urine, indicating the likelihood of extensive metabolism. […] Enhancement of CCNU response is likely to require circulating benznidazole concentrations of 10-30 pgml-1 and we predict that these will be obtained with oral doses of 6-20 mgkg- 1 in man. […] This enhancement, or chemosensitization, is usually greater than that seen in dose-limiting normal tissues, resulting in an improved therapeutic index. Because of the relatively high doses of MISO usually required for chemosensitization in mice (see above refs), and also because of its neurotoxicity in man (Dische et al., 1977), we have been interested in finding an improved chemosensitizer. […] The lipophilic ana- logue benznidazole (N-benzyl-(2-nitroimidazolyl) acetamide, Ro 07-1051; Radanil; Roche), the structure of which is shown in Figure 1, was selected for detailed study because of its ability to *Present address: Animal Health Trust, Small Animals Centre, Lanwades Park, Kennett, Newmarket, Suffolk CB8 7PN, UK. Correspondence: P. Workman. […] These findings have been confirmed independently by Siemann et al. (1983). Although benznidazole is used quite widely in South America to treat patients with the trypanosomal infection Chagas' disease or with mucotaneous Leishmaniasis (Barclay et al., 1978; Cerisola et al., 1978; Coura et al., 1978; Fava et al., 1978), apart from our preliminary studies (White et al., 1982) the only published data on its pharmaco- kinetics are for human plasma concentrations measured by polarography (Raaflub & Ziegler, 1979; Raaflub, 1980). Here we describe the pharmacokinetics of benznidazole in the mouse, sheep and dog, as determined by high-performance liquid chromatography (HPLC). […] The Macmillan Press Ltd., 1984 292 P. WORKMAN et al. particularly on plasma and tumour concentrations, have been used as a basis for the estimation of the benznidazole doses required in a Phase I trial of benznidazole plus CCNU, at present ongoing in our Unit. Materials and methods Animals and tumours Adult inbred male BALB/c mice were obtained from OLAC (Southern) Ltd. (Bicester, UK) and adult inbred C3H/He mice of both sexes from OLAC and our own breeding colony. Mice were housed in plastic cages on sawdust bedding made from soft white woods, and allowed laboratory chow and water ad lib. They were used at 20-35 g body wt.

[4] = collie crossbred, plasma, iv, 5 mg/kg, dog C, 5 mg kg-1 i.v.
[5] = collie crossbred, plasma, iv, 5 mg/kg, dog D, 5 mg kg-1 i.v.

O=C(Cn1ccnc1[N+](=O)[O-])NCc1ccccc1 [benznidazole, N-benzyl-(2-nitroimidazolyl) acetamide]
fraction unbound (plasma proteins): 0.41 to 0.61 | tissue/whole plasma ratio, overall mean + s.e. ([1]; 24 neoplastic tissue samples (excluding cyst fluid)): 50+3% | absolute neoplastic tissue concentration, overall mean+s.e. ([1]; 24 samples, 1.67-4.5 h, normalised to 12.5 mg kg-1 oral): 5.6 +0.5 µg g-1 | Kp ([1]; liver/whole plasma, first of the two values obtained, read-out: liver/whole plasma ratio): 0.14 | Kp ([1]; liver/whole plasma, second of the two values obtained, read-out: liver/whole plasma ratio): 0.51 | Kp ([1]; tumour (spontaneous neoplastic tissue), po, neoplastic tissues, 12.5 (one dog 25) mg kg-1 oral, 1.67-4.5 h, read-out: tissue/whole plasma ratios, range): 0.14 to 0.7 | dose excreted ([2]; experiment 1): 4.8% | dose excreted ([2]; experiment 2): 5.2% | administered dose excreted unchanged in the urine ([2]; summary value): approximately 5% | AUC(0-inf) ([3]; beagle, plasma, po, 50 mg/kg, dog E, 50 mg kg-1 oral): 760 µg·h/mL | half-life ([3]; beagle, plasma, po, 50 mg/kg, dog E, 50 mg kg-1 oral, 95% confidence limits 5.3-6.1, read-out: elimination half-life t1/2β (converted)): 5.7 h | AUC(0-inf) ([3]; beagle, plasma, po, 50 mg/kg, dog F, 50 mg kg-1 oral): 707 µg·h/mL | half-life ([3]; beagle, plasma, po, 50 mg/kg, dog F, 50 mg kg-1 oral, 95% confidence limits 6.4-7.3, read-out: elimination half-life t1/2β (converted)): 6.8 h | Tmax ([3]; collie crossbred, beagle, plasma, dogs, oral administration, usual range, read-out: time to peak plasma concentration): 1 to 5 h | Vd ([3]; collie crossbred, plasma ultrafiltrate (unbound drug), iv, 5 mg/kg, dog C, 5 mg kg-1 i.v., read-out: volume of distribution (Vd area), unbound drug data): 2.05 L/kg | Vd ([3]; collie crossbred, plasma ultrafiltrate (unbound drug), iv, 5 mg/kg, dog D, 5 mg kg-1 i.v., read-out: volume of distribution (Vd area), unbound drug data): 1.87 L/kg | half-life ([3]; collie crossbred, plasma, dogs (large crossbred), summary value, read-out: elimination t1/2): 9 to 11 h | AUC(0-inf) [3, 4]: 105 µg·h/mL | clearance [3, 4]: 0.0476 L/h/kg | half-life ([3]; collie crossbred, plasma, iv, 5 mg/kg, dog C, 5 mg kg-1 i.v., 95% confidence limits 7.1-8.1, read-out: elimination half-life t1/2β (converted)): 7.6 h | Vd ([3]; collie crossbred, plasma, iv, 5 mg/kg, dog C, 5 mg kg-1 i.v., read-out: volume of distribution (Vd area), total plasma data): 0.52 L/kg | AUC(0-inf) [3, 5]: 138 µg·h/mL | clearance [3, 5]: 0.0362 L/h/kg | half-life ([3]; collie crossbred, plasma, iv, 5 mg/kg, dog D, 5 mg kg-1 i.v., 95% confidence limits 9.2-11.4, read-out: elimination half-life t1/2β (converted)): 10.2 h | Vd ([3]; collie crossbred, plasma, iv, 5 mg/kg, dog D, 5 mg kg-1 i.v., read-out: volume of distribution (Vd area), total plasma data): 0.53 L/kg | half-life ([3]; collie crossbred, plasma, iv, 5 mg/kg, dogs C and D, 5 mg kg-1 i.v., read-out: distribution phase half-life t1/2α (estimated by back-stripping, about)): 0.167 to 0.417 h | AUC(0-inf) ([3]; collie crossbred, plasma, po, 12.5 mg/kg, dog C, 12.5 mg kg-1 oral): 419 µg·h/mL | half-life ([3]; collie crossbred, plasma, po, 12.5 mg/kg, dog C, 12.5 mg kg-1 oral, 95% confidence limits 9.7-13.3, read-out: elimination half-life t1/2β (converted)): 11.2 h | AUC(0-inf) ([3]; collie crossbred, plasma, po, 12.5 mg/kg, dog D, 12.5 mg kg-1 oral): 450 µg·h/mL | half-life ([3]; collie crossbred, plasma, po, 12.5 mg/kg, dog D, 12.5 mg kg-1 oral, 95% confidence limits 17.3-22.0, read-out: elimination half-life t1/2β (apparent) (converted)): 19.4 h | AUC(0-inf) ([3]; collie crossbred, plasma, po, 25 mg/kg, dog A, 25 mg kg-1 oral, samples collected up to 9 h only): ~800 µg·h/mL | AUC(0-inf) ([3]; collie crossbred, plasma, po, 25 mg/kg, dog B, 25 mg kg-1 oral, samples collected up to 9 h only): ~800 µg·h/mL | AUC(0-inf) ([3]; collie crossbred, plasma, po, 25 mg/kg, dog C, 25 mg kg-1 oral): 687 µg·h/mL
